The text below walks through data of patent US20090036475A1, “Pyrazolyl-Pyrimidines as Potassium Channel Modulating Agents and Their Medical Use” (NEUROSEARCH A/S, priority 2006, published 2009).

Molecules are shown by their SMILES.

In one series the target is T1, small-conductance Ca2+-activated K+ channel, subtype 3 (SK3) (Homo sapiens, UniProt Q9UGI6).
T1 construct: expressed in transfected cells; host or cells: HEK293
Description: Whole-cell patch-clamp recording of SK3 current in HEK293 cells. The class given is cell-based. As to conditions: hSK3 stably expressed in HEK293 cells, baseline current at −20 mV, free Ca2+ 300 nM, room temperature. As for the experimental part: The ionic current through small-conductance Ca^2+-activated K^+ channels (SK channels, subtype 3) is recorded using the whole-cell configuration of the patch-clamp technique.
The small-conductance Ca^2+-activated K^+ channel, subtype 3 (SK3) was cloned from human skeletal muscle and stably expressed in HEK293 cells.
Human SK3 (hSK3) was sub-cloned into the expression vector pNS3n, a customized vector derived from pcDNA3 (InVitrogen) to give the plasmid construct pNS3_hSK3. HEK293 tissue culture cells were grown in DMEM (Dulbecco's Modified Eagle Medium) supplemented with 10% FCS (foetal calf serum) at 37° C. in 5% CO2. […]
Experiments are carried out on one of several patch-clamp set-ups. […] Data are stored directly on the hard-disk and analysed by IGOR software (Wavemetrics, Lake Oswega, Oreg., USA).
The whole-cell configuration of the patch-clamp technique is applied. […] Cell capacitance is electronically compensated and the resistance between the pipette and the cell interior (the series resistance, Rs) is measured and compensated for. […]
The intracellular (pipette) solution has the following composition (in mM): 105 KCl, 45 KOH, 10 EGTA, 1.21 MgCl2, 7.63 CaCl2, and 10 HEPES (pH=7.2 with HCl). The calculated free concentration of Ca^2+ in this solution is 300 nM and that of Mg^2+ is 1 mM. […]
Active compounds are quantified by calculating the change in baseline current at −20 mV. […]
For `Cc1cc(NC2CCCCC2)nc(-n2nc(C)cc2C)n1` [Compound A2, Cyclohexyl-[2-(3,5-dimethyl-pyrazol-1-yl)-6-methyl-pyrimidin-4-yl]-amine], the “SC100 (Stimulating Concentration required for increasing the baseline current by 100%)” value is 0.1 µM.

System in another series: not given
Assay: not given
Conditions: not given
`Cc1cc(C)n(-c2ncc(C)c(Nc3ccc(Cl)cc3)n2)n1` [Compound B12, (4-Chloro-phenyl)-[2-(3,5-dimethyl-pyrazol-1-yl)-5-methyl-pyrimidin-4-yl]-amine] gave a melting point of 179.2 to 182.3 °C.

For the molecule `Cc1cc(C)n(-c2ncc(Br)c(Nc3ccc(Cl)cc3)n2)n1` [Compound B10, [5-Bromo-2-(3,5-dimethyl-pyrazol-1-yl)-pyrimidin-4-yl]-(4-chloro-phenyl)-amine], the melting point lay within 144.5 to 154 °C.

The molecule `Cc1cc(C)n(-c2ncc(Cl)c(NC3CCCCC3)n2)n1` [Compound A6, [5-Chloro-2-(3,5-dimethyl-pyrazol-1-yl)-pyrimidin-4-yl]-cyclohexyl-amine] displayed a melting point of 90 to 99 °C.

`Cc1cc(C)n(-c2nccc(NC3CCCCC3)n2)n1` [Compound A5, Cyclohexyl-[2-(3,5-dimethyl-pyrazol-1-yl)-pyrimidin-4-yl]-amine] showed a melting point of 144.5 to 146.7 °C.

In turn, `Cc1ccc(Nc2cc(C)nc(-n3nc(C)cc3C)n2)cc1` [Compound B1, [2-(3,5-Dimethyl-pyrazol-1-yl)-6-methyl-pyrimidin-4-yl]-p-tolyl-amine] returned a melting point of 135.1 to 137.5 °C.

In turn, `Cc1cc(Nc2ccccc2)nc(-n2nc(C)cc2C)n1` [Compound B2, [2-(3,5-Dimethyl-pyrazol-1-yl)-6-methyl-pyrimidin-4-yl]-phenyl-amine] came in with a melting point of 134.5 to 138.8 °C.

In turn, `Cc1cc(C)n(-c2nccc(Nc3cccc(C(F)(F)F)c3)n2)n1` [Compound B8, [2-(3,5-Dimethyl-pyrazol-1-yl)-pyrimidin-4-yl]-(3-trifluoromethyl-phenyl)-amine] returned a melting point of 98.5 to 99.6 °C.

For `Cc1cc(Nc2cccc(C(F)(F)F)c2)nc(-n2nc(C)cc2C)n1` [Compound B6, [2-(3,5-Dimethyl-pyrazol-1-yl)-6-methyl-pyrimidin-4-yl]-(3-trifluoromethyl-phenyl)-amine], the melting point lay within 130.5 to 133.6 °C.

Regarding `Cc1ccc(Nc2ccnc(-n3nc(C)cc3C)n2)cc1` [Compound B11, [2-(3,5-Dimethyl-pyrazol-1-yl)-pyrimidin-4-yl]-p-tolyl-amine], the melting point was in the range of 52 to 55.6 °C.

Consider `Cc1cc(C)n(-c2nccc(Nc3ccc(Cl)cc3)n2)n1` [Compound B9, (4-Chloro-phenyl)-[2-(3,5-dimethyl-pyrazol-1-yl)-pyrimidin-4-yl]-amine], for which the melting point was 135.5 to 140 °C.

The molecule `Cc1cc(NCc2ccccc2)nc(-n2nc(C)cc2C)n1` [Compound A1, Benzyl-[2-(3,5-dimethyl-pyrazol-1-yl)-6-methyl-pyrimidin-4-yl]-amine] had a melting point of 135.9 to 137.3 °C.

Molecule `Cc1cc(Nc2ccc(Cl)c(Cl)c2)nc(-n2nc(C)cc2C)n1` [Compound B4, (3,4-Dichloro-phenyl)-[2-(3,5-dimethyl-pyrazol-1-yl)-6-methyl-pyrimidin-4-yl]-amine] yielded a melting point of 135.3 to 137.8 °C.

Consider `Cc1cc(Nc2ccc(Cl)cc2)nc(-n2nc(C)cc2C)n1` [Compound B3, (4-Chloro-phenyl)-[2-(3,5-dimethyl-pyrazol-1-yl)-6-methyl-pyrimidin-4-yl]-amine], for which the melting point was in the range of 181 to 183.2 °C.
